Measurements: patent US12171793B2, “Method of activating lactic acid bacteria” (INFANT BACTERIAL THERAPEUTICS AB, priority 2015, dated 2024)
Entries after “also recorded” stand apart in the source; their conditions may differ.

Experiments:
[1] = system: Lactobacillus reuteri DSM 17938; assay: Growth of Lactobacillus reuteri in simulated intestinal substrate (SIS); type: cell-based; conditions: FIG. 1; GOS or glucose plus electron acceptor, 15 mM of each; 16 h at 37° C., anaerobic
Experimental: The growth of L. reuteri DSM 17938 on different combinations of sugar and electron acceptors was evaluated in “Simulated intestinal substrate” (SIS). [table] Lactobacillus reuteri cells of strain DSM 17938 were first grown over night in MRS broth (Oxoid) at 37° C. After washing in phosphate-buffered saline (PBS) the bacteria were diluted 10 × in PBS. 10 μl of bacterial suspension was thereafter inoculated to 10 ml SIS (with addition of sugar and electron acceptor), and the bacteria were cultivated for 16 h at 37° C. during anaerobic conditions and no shaking. The growth of Lactobacillus reuteri DSM 17938 in SIS with lactose and citrate as the sugar-electron acceptor pair is evaluated in the same way as described above for GOS and citrate as the electron acceptor. The above described substrate (SIS) is used.

[2] = system: Lactobacillus reuteri DSM 17938; assay: Evaluation of activation time by turbidity (BioScreen) in simulated intestinal medium STMmod 3; type: cell-based; conditions: STMmod 3, 37° C., OD 600 nm; with citrate compared to without citrate; FIG. 3
Experimental: The activation time in simulated intestinal medium (STMmod 3, see Table 4) of the two variants of lyophilized DSM 17938 (C and N) were analyzed using a computer-controlled incubator/reader/shaker (BioScreen C MBR) that measure the change in turbidity over time. The medium STMmod 3 was used to mimic the conditions in the intestine. To each well 200 μl of STMmod 3 was added. Thereafter different volumes (100, 60, 40, 30, 25 μl) of bacterial suspension (vials with lyophilized bacteria suspended in 1 ml dH2O) were added. Volumes were adjusted to 300 μl with dH2O. The analysis of each inoculation volume was done in triplicates. The BioScreen analysis was run at 37° C. for 24 hours with a 15 min interval between measurements (OD 600 nm), with the addition of a 10 s shaking step before each measuring point. [table]

O=C(O)CC(O)(CC(=O)O)C(=O)O [Citrate]
growth of Lactobacillus reuteri DSM 17938 in simulated intestinal substrate [1]: highest effect | time to reach a 3% increase in OD (activation time) [2]: shorter time; also recorded: shorten the activation time
